In patent US20080213743A1, “Method for adjusting sedimentation rates” (priority 2007, published 2008):

System: bone marrow aspirate
Assay: Centrifugal fractionation of bone marrow aspirate with the whole-blood platelet rich plasma protocol; analysis of ten milliliter concentrate sample
Assay type: cell-based
Settings: 60 mls bone marrow aspirate collected into heparin, 8-10 mls of ACD added or heparin alone, two centrifugations
Procedure: In one specific example of the invention, 60 mls of bone marrow aspirate is collected into a bag or syringe having heparin as the anticoagulant. A bag is preferred to be able to inspect the collected marrow. Then, 8-10 mls of ACD are added to the collected aspirate to adjust the sedimentation rate of the components, particularly the red blood cells. The aspirate mixture is then placed in the first chamber of a two-chamber processing unit and subjected to centrifugation according to a known protocol designed to fractionate whole blood for the purpose of making platelet rich plasma as described in U.S. Pat. No. 6,398,972. The supernatant is then decanted to the second chamber and again subjected to centrifugation according to the said process designed to separate platelets to make platelet rich plasma. Supernatant from the second centrifugation is withdrawn to leave a ten milliliter concentrate sample remaining in the chamber. […] In contrast, when same process is followed with heparin alone, the sample is 3% Hct with a TNC of 32.4×10^3/μl.

Substance: heparin
- Hct of concentrate sample: 3 % Hct
- total nucleated cell count (TNC) of concentrate sample: 32400 µL⁻¹
